Source: patent US6699676B1, “Uses of ouabain and ouabain-like molecules in apoptosis related pathologies” (Corporation du Centre de Recherche du Centre, Hospitalier …, priority 1999, dated 2004)

Key:
[1] = tested on: Jurkat cells; experiment: Chromatin cleavage assay in Jurkat cells; format: cell-based, human; conditions: for content of chromatin fragments: 3 hours, 0.25 μM staurosporine or 350 mM mannitol (from 2.6±1.2); for Chromatin fragments (%): 1 mM, 2 hours + 7 hours
Description: FIG. 4. Effect of ouabain on chromatin cleavage in Jurkat cells. (A) Kinetics of accumulation of chromatin fragments in control (curves 1, 3) and ouabain-treated (curves 2, 4) cells in the absence (curves 1, 2) or presence (curves 3, 4) of 100 ng/ml of anti-human Fas (mouse monoclonal IgM, Upstate Biotechnology, Lake Placid, N.Y.); (B) Content of chromatin fragments in Jurkat cells subjected to 3 hours of incubation with or without 1 mM ouabain, 0.25 μM staurosporine and 350 mM mannitol. In both experiments, ouabain was added 2 hours before triggering of apoptosis. Mean values±S.E. obtained in experiments performed in triplicate are given.
To estimate chromatin cleavage, cells were incubated for 2 hours in the presence of 10% calf serum in the control solution (DMEM, [Na^+]=137 mM; [K^+]=5 mM—line 1) or under equimolar substitution of NaCl with KCl ([Na^+]=14 mM; [K^+]=128 mM—line 2) with or without 1 mM ouabain and then for an additional 7 hours at the same media with or without 100 ng/ml Fas ligand (Fas-L). Intracellular Na^+ and K^+ content was measured as steady-state distribution of isotopes after 24 hours preincubation of cells in control Na^+-enriched solution containing 0.5 μCi/ml ^86Rb or 2 μCi/ml ^22Na, and an additional 6 hours incubation in Na^+—(line 1) or K^+—(line 2) enriched medium containing 10% calf serum, isotopes with the same specific activity with or without 1 mM ouabain. For more details see Experimental Procedures. Mean values±S.E. obtained in experiments performed in triplicate are given. ★, #p<0.01 and 0.001 compared to ouabain-untreated cells.
Cells. VSMC were obtained by explant methods from aortas of 10- to 13-week-old male rats as described previously (17), cultured in DMEM with 10% calf serum, 100 U/ml penicillin, 100 µg/ml streptomycin and used between 10 to 16 passages. Cells transfected with c-myc (VSMC-MYC) and E1A-adenovirus (VSMC-E1A) were obtained in accordance with a previously-described protocol (18,19) and were cultured in the same medium with the addition of 500 µg/ml genticin. Jurkat cells were obtained from the American Type Culture Collection and cultured in RPMI 1640 medium supplied with 10% calf serum, antibiotics, sodium pyruvate, glutamate and β-mercaptoethanol.
Chromatin cleavage assay. Chromatin cleavage in VSMC was estimated by a technique described previously in detail (10). Briefly, VSMC grown in 24-well dishes were labeled for 24 hours in serum-supplied DMEM with [^3H]-thymidine (1 μCi/ml), washed with 2×2 ml of DMEM and incubated in serum-supplied DMEM. In 48 hr, the cells were pretreated with ouabain or K^+-depleted medium as indicated in FIG. 2 and Table 3, washed twice with serum-containing medium and incubated with 0.5 ml of medium with or without ouabain and containing different inducers of apoptosis. To measure the content of chromatin fragments, the cells were transferred on ice and 1 ml of ice-cold lysed buffer (10 mM EDTA, 10 mM tris-HCl, 0.5% triton X100 (pH 8.0)) was added. After 15 min, the cell lysate was transferred to Ependorf tubes, sedimented (12,000 rpm, 10 mm), and 1 ml of supernatant was transferred for the measurement of radioactivity (A1t). The remaining radioactivity from pellets and wells was extracted with 0.5 ml of 1% SDS/4 mM EDTA mixture, combined and counted (A2). Chromatin cleavage was quantified as the content of chromatin fragments normalized by total content of [^3H]-labeled DNA in accordance with the equation [1.5×(A1t−A1o)/(A2+A1t−1.5A1o)]×100% where A1o is the value of A1t before induction of apoptosis. To measure chromatin fragmentation in [^3H]-thymidine-labeled Jurkat cells, they were resuspended at a density of 10^6 cells/ml in medium containing 10% calf serum and the additions indicated in FIG. 4 and Table 4. At the time intervals shown in FIG. 4, 100 μl of cell suspension was mixed with 100 μl of PBS contairung 0.5% triton X100, and the content of chromatin fragments was measured as described previously in detail (20).

[2] = tested on: caspase-3; experiment: Caspase-3 activity in treated VSMC-E1A; format: cell-based, rat
Description: (§1) FIG. 5. Effect of ouabain on caspase-3 activity in VSMC-E1A (A) and Jurkat cells (B). VSMC-E1A and Jurkat cells were pretreated with 1 mM ouabain for 1 and 2 hours, respectively, and the additions indicated below the bars were delivered in media with 10% calf serum and with the baseline (137/5) or inverse (14/128) [Na^+]o/[K^+]o ratio for 6 (VSMC-E1A) or 3 hours (Jurkat cells). In experiments with VSMC-E1A, calf serum (CS) was omitted where indicated (−). Abbreviations: staur.—staurosporine (0.25 μM), ok.ac.—okadaic acid (1 μM), mann.—mannitol (350 mM); Fas-L—Fas ligand (100 ng/ml). Mean values±S.E. obtained in experiments performed in quadruplicate (A) or triplicate (B) are given. ★p<0.001 compared to ouabain-untreated cells.
(§2) Caspase activity. VSMC-E1A seeded in 20 cm^2 flasks and treated as indicated in FIG. 5 were scratched, transferred to centrifuge tubes, washed twice with PBS and lysed in 0.5 ml of buffer A contaming 50 mM tris-HCl (pH 7.4), 5 mM MgCl2, 1 mM EGTA and 0.1% CHAPS. Then, 50-100 μl of cell lysate was mixed with 600 μl of buffer A containing 1 mM dithiothreitol, 40 μM YVAD-AMC or DEVD-AMC with or without 1 μM of caspase-1 and capspase-3 inhibitors (Ac-YVAD-CHO and Ac-DEVD-CHO, respectively), incubated for 2 hours at 37° C. and diluted 15-fold with 80 mM glycine-NaOH buffer (pH 10). Fluorescence of the samples was measured at ex=365 run and em=465 run and calibrated with AMC in the range of 10 to 100 nM. To measure caspase activity in control and ouabain-treated Jurkat cells, 5 ml of suspension containing ˜2×10^7 cells was transferred onto ice and sedimented. The pellet of cells was washed and treated with 0.3 ml of medium A in the same way as VSMC. Protein content was estimated by Bradford methods.

[3] = tested on: caspase-3; experiment: Caspase-3 activity in treated Jurkat cells; format: cell-based, human; conditions: for increase of caspase-3 activity: 3 hours, Fas ligand 100 ng/ml, staurosporine 0.25 μM, mannitol 350 mM
Description: as §1, §2

Structure (SMILES) | content of chromatin fragments ([1]; Jurkat cells) | caspase-3 activity under mannitol-induced cell shrinkage ([2]; 350 mM mannitol, 6 hours) | increase of caspase-3 activity [3] | increase of caspase-3 activity ([2]; 6 hours, staurosporine 0.25 μM, okadaic acid 1 μM) | chromatin cleavage in the absence of triggers of apoptosis ([1]; Jurkat cells, 2 hours ouabain pretreatment, subsequent 3 hours) | increment of chromatin cleavage triggered by Fas ligand, staurosporine or mannitol ([1]; Jurkat cells, ouabain, 3 hours treatment with trigger) | Chromatin fragments (%) ([1]; ouabain-treated Jurkat cells, +Fas-L 100 ng/ml, medium [Na+]o=14, [K+]o=128 mM) | Chromatin fragments (%) ([1]; ouabain-treated Jurkat cells, +Fas-L 100 ng/ml, medium [Na+]o=137, [K+]o=5 mM) | Chromatin fragments (%) ([1]; ouabain-treated Jurkat cells, no Fas-L, medium [Na+]o=14, [K+]o=128 mM) | Chromatin fragments (%) ([1]; ouabain-treated Jurkat cells, no Fas-L, medium [Na+]o=14, [K+]o=128 mM, listed as ouabain) | Chromatin fragments (%) ([1]; ouabain-treated Jurkat cells, no Fas-L, medium [Na+]o=137, [K+]o=5 mM) | Chromatin fragments (%) ([1]; ouabain-treated Jurkat cells, no Fas-L, medium [Na+]o=137, [K+]o=5 mM, listed as ouabain) | increment of the content of chromatin fragments triggered by Fas ligand ([1]; ouabain-treated Jurkat cells, 7-hr incubation) | increment of caspase-3 activity under induction of apoptosis ([2]; 1 mM ouabain, control medium) | caspase-3 activity in apoptosis triggered by okadaic acid ([2]; ouabain, K+-enriched, Na+-depleted medium ([Na+]o/[K+]o=14/128)) | baseline activity of caspase-3 ([2]; pretreatment 1 hour with 1 mM ouabain (from 560±41)) | increment of caspase-3 activity triggered by Fas ligand, staurosporine and hyperosmotic shrinkage ([3]; ouabain) | baseline caspase-3 activity ([3]; pretreatment 2 hours with 1 mM ouabain (from 296±38))
OC[C@@H](O)[C@@H](O)[C@H](O)[C@H](O)CO [mannitol] | 15.6±2.9% | insensitive to mannitol-induced cell shrinkage | ~10 fold |  |  |  |  |  |  |  |  |  |  |  |  |  |  | 
CN[C@@H]1C[C@H]2O[C@@](C)([C@@H]1OC)n1c3ccccc3c3c4c(c5c6ccccc6n2c5c31)C(=O)NC4 [staurosporine] | 19.7±4.3% |  | ~20 fold | 8 fold |  |  |  |  |  |  |  |  |  |  |  |  |  | 
C[C@@H]1O[C@@H](O[C@H]2C[C@@H](O)[C@]3(CO)[C@H]4[C@H](O)C[C@]5(C)[C@@H](C6=CC(=O)OC6)CC[C@]5(O)[C@@H]4CC[C@]3(O)C2)[C@H](O)[C@H](O)[C@H]1O [Ouabain, 1β,3β,5,11α,14,19-hexahydroxycard 20 [22]-enolide 3-[6-deoxy-α-L-mannopyrano-sidel]] |  |  |  |  | did not significantly modify chromatin cleavage | did not observe any effect | 22.7% | 42.7% | 5.7% | 5.7±2.0% | 16.0% | 16.0±4.6% | 26.2±4.7% | abolished the increment of caspase-3 activity | did not observe any effect | 101±39 pmol (mg prot)^−1 hr^−1 | Neither ouabain nor equimolar substitution of Na^+ by K^+ in the incubation medium affected the increment of caspase-3 activity | 497±67 pmol (mg prot)^−1 hr^−1
